{"source": "patent US20160009752A1", "about": "“[…]-OXIMINO-AMINOALKYLETHERS AND PROCESS FOR PREPARATION THEREOF, USEFUL AS ANTIDIABETIC AND […] AGENTS” (COUNCIL OF SCIENTIFIC & INDUSTRIAL RESEARCH, priority 2013, published 2016)", "key": {"L6 myotubes": {"system": "L6 myotubes", "test": "2-3H-deoxyglucose uptake by skeletal muscle cells", "type": "cell-based, rat", "conditions": "for 2-deoxyglucose uptake, fold vs. control: 16 h", "method": "The fold increase in 2-deoxy-glucose uptake in the presence of test compound by rat skeletal muscle cells (L-6 myotubes) was considered as % antihyperglycemic activity of the test compound which was carried out as follows. L6 myotubes were incubated with increasing concentrations of 14b and the standard drug rosiglitazone (10 μM) for 16 h. After incubation glucose uptake was assessed for 5 min in HEPES-buffered saline [140 mM NaCl, 20 mM HEPES, 5 mM KCl, 2.5 mM MgSO4, 1 mM CaCl2 (pH 7.4)] containing 10 μM 2-deoxyglucose (0.5 μCi/ml 2-[^3H]-deoxyglucose) at room temperature. Subsequently cells were rinsed with an ice-cold solution containing 0.9% NaCl and 20 mM D-glucose. To quantify the radioactivity incorporated, cells were lysed with 0.05 N NaOH and lysates were counted with scintillation fluid in a β-counter. Nonspecific uptake was determined in the presence of cytochalasin B (50 μM) during the assay, and these values were subtracted from all other values. Glucose uptake was measured in triplicate and normalized to total protein, was expressed as fold increase with respect to control cells."}, "[1]": {"system": "sucrose challenged low dosed STZ-induced diabetic rats", "test": "Sucrose challenged low dosed streptozotocin-induced diabetic rats (STZ-S)", "type": "in vivo, rat", "method": "Fasting blood glucose level of each animal was measured after 48 hours post STZ injection by Glucostrips (Roche) using Glucometer (ACCU-CHEK II; Roche Diagnostics, USA) and animals showing blood glucose level above 280 mg/dl were considered as diabetic. The diabetic rats with fasting blood glucose values varying between […] were included in this study. Animals were divided into groups consisting of five animals in each. Group one was considered as a control group, where as the other groups were termed as experimental groups. […] The test samples and standard drug (Metformin) was always prepared in the vehicle 1% gum acacia. […] Food (not water) was removed from the cages during the experimental period. […] The percent decline in AUC of the experiment group compared to sham treated control group termed as % antihyperglycaemic activity. Statistical analysis between the groups was done by employing Students t test."}, "[2]": {"system": "high fructose high fat fed Syrian golden hamsters", "test": "Antidyslipidemic activity in high fructose high fat fed Syrian golden hamsters", "type": "in vivo", "method": "Male Syrian golden hamsters weighing 100-120 g were divided into groups each containing six animals. Dyslipidemia was produced by feeding the animals with high fructose high fat diet (60% fructose, 13% fat) for 30 to 40 days. Dyslipidemic hamsters were divided into groups based on their Serum lipid profile. The dyslipidemic animals had free access to HFD and water throughout the experimental period. The fine suspension of 14b was fed orally at a dose of 30 mg/kg for 7 days to the animals. Control animals were given drug vehicle only, served as sham treated control. Body weight and diet intake of each animal group were recorded daily to check the effect of the test samples on food intake and body weight of the animals. At the end of the experiment period i.e. on day 8th, the blood of each animal was withdrawn from retro-orbital plexus. After keeping the tubes for 15 min. in cold, Serum was separated. Biochemical analysis of Serum was performed on the same day for triglycerides (TG), total cholesterol (TC) and HDL-cholesterol and LDL-cholesterol contents using Cobas Integra 400 plus analyzer kits. All statistical analysis will be performed with Graph Pad Prism Software. One way ANOVA, all pair wise multiple comparison procedure (Tukey test). Data will be reported as mean±SEM."}, "[3]": {"test": "Pharmacokinetic study after oral and intravenous dose in rats", "type": "in vivo", "parameters": "Vd/F / Vd: unit not given here", "conditions": "rat", "description": "In order to study its bioavailability, the method of its quantitative determination in plasma matrices in rat was developed and validated. […] The method was applied in the analysis of PK samples obtained after oral and intravenous dose administration in rats."}}, "note": "Like-named read-outs stand apart in the source and are kept apart here. Marks after values point to notes of the source that are not given here."}
{"smiles": "C/C(=N\\OCCN1CCCCC1)[C@H]1CC[C@H]2[C@@H]3CC=C4C[C@@H](O)CC[C@]4(C)[C@H]3CC[C@]12C", "note": "[Compound 14b, 3β-Hydroxy-pregna-5-en-20-one-O-(2-piperidin-1-yl-ethyl)-oxime]", "values": [{"measurement": "2-deoxyglucose uptake, fold vs. control", "setting": "L6 myotubes; 1.0 μM", "result": "1.59±0.28", "unit": "fold"}, {"measurement": "2-deoxyglucose uptake, fold vs. control", "setting": "L6 myotubes; 2.5 μM", "result": "2.61±0.45", "unit": "fold"}, {"measurement": "2-deoxyglucose uptake, fold vs. control", "setting": "L6 myotubes; 5.0 μM", "result": "2.88±0.74", "unit": "fold"}, {"measurement": "2-deoxyglucose uptake, fold vs. control", "setting": "L6 myotubes; 10 μM", "result": "3.37±0.12", "unit": "fold"}, {"measurement": "glucose uptake in presence of cytochalasin-B", "setting": "L6 myotubes; cytochalasin-B 50 μM added to transport solution", "result": "completely blocked"}, {"measurement": "minimum concentration increasing glucose uptake to a significant level", "setting": "L6 myotubes; p<0.05", "result": 1.0, "unit": "µM"}, {"measurement": "Blood glucose level, 0 min post sucrose load", "setting": "[1]; 100 mg/kg", "result": "222.0 ± 7.9", "unit": "mg/dL"}, {"measurement": "Blood glucose level, 30 min post sucrose load", "setting": "[1]; 100 mg/kg", "result": "452.6 ± 18.2", "unit": "mg/dL"}, {"measurement": "Blood glucose level, 60 min post sucrose load", "setting": "[1]; 100 mg/kg", "result": "524.8 ± 11.2", "unit": "mg/dL"}, {"measurement": "Blood glucose level, 90 min post sucrose load", "setting": "[1]; 100 mg/kg", "result": "468.2 ± 12.6", "unit": "mg/dL"}, {"measurement": "Blood glucose level, 120 min post sucrose load", "setting": "[1]; 100 mg/kg", "result": "412.6 ± 5.8", "unit": "mg/dL"}, {"measurement": "Blood glucose level, 180 min post sucrose load", "setting": "[1]; 100 mg/kg", "result": "345.2 ± 9.2", "unit": "mg/dL"}, {"measurement": "Blood glucose level, 240 min post sucrose load", "setting": "[1]; 100 mg/kg", "result": "311.6 ± 3.7", "unit": "mg/dL"}, {"measurement": "Blood glucose level, 300 min post sucrose load", "setting": "[1]; 100 mg/kg", "result": "264.8 ± 8.7", "unit": "mg/dL"}, {"measurement": "Blood glucose level, 1440 min post sucrose load", "setting": "[1]; 100 mg/kg", "result": "414.8 ± 8.3", "unit": "mg/dL"}, {"measurement": "% Antihyperglycemic activity STZ-S 0-5 hr", "setting": "[1]; Table 2", "result": 28.9, "unit": "%"}, {"measurement": "% Antihyperglycemic activity STZ-S 0-24 hr", "setting": "[1]; Table 2", "result": 25.2, "unit": "%"}, {"measurement": "enhancement of lipoprotein lipase", "setting": "[2]; 30 mg/kg oral", "result": 19.4, "unit": "%"}, {"measurement": "enhancement of serum HDL-cholesterol", "setting": "[2]; 30 mg/kg oral", "result": 17.8, "unit": "%"}, {"measurement": "lowering of LDL-cholesterol (LDL-C) level", "setting": "[2]; 30 mg/kg oral", "result": 32.3, "unit": "%"}, {"measurement": "lowering of non-esterified fatty acid (NEFA)", "setting": "[2]; 30 mg/kg oral", "result": 12.3, "unit": "%"}, {"measurement": "lowering of serum glycerol level", "setting": "[2]; 30 mg/kg oral", "result": 25.7, "unit": "%"}, {"measurement": "lowering of serum triglycerides level (TG)", "setting": "[2]; 30 mg/kg oral", "result": 32.8, "unit": "%"}, {"measurement": "lowering of total cholesterol (T-Chol) level", "setting": "[2]; 30 mg/kg oral", "result": 23.1, "unit": "%"}, {"measurement": "Chol, change vs HFD control (in parentheses)", "setting": "[2]; 30 mg/kg p.o., 7 days", "result": "(−23.1)* %"}, {"measurement": "Glycerol, change vs HFD control (in parentheses)", "setting": "[2]; 30 mg/kg p.o., 7 days", "result": "(−25.7) %"}, {"measurement": "HDL-C, change vs HFD control (in parentheses)", "setting": "[2]; 30 mg/kg p.o., 7 days", "result": "(+17.8) %"}, {"measurement": "LDL-C, change vs HFD control (in parentheses)", "setting": "[2]; 30 mg/kg p.o., 7 days", "result": "(−32.3)* %"}, {"measurement": "Lipoprotein lipase, change vs HFD control (in parentheses)", "setting": "[2]; 30 mg/kg p.o., 7 days", "result": "(+19.4) %"}, {"measurement": "NEFA, change vs HFD control (in parentheses)", "setting": "[2]; 30 mg/kg p.o., 7 days", "result": "(−12.3) %"}, {"measurement": "TG, change vs HFD control (in parentheses)", "setting": "[2]; 30 mg/kg p.o., 7 days", "result": "(−32.8)* %"}, {"measurement": "Chol", "setting": "[2]; 30 mg/kg p.o., 7 days, serum", "result": "257.2 ± 22.4", "unit": "mg/dL"}, {"measurement": "Glycerol", "setting": "[2]; 30 mg/kg p.o., 7 days, serum", "result": "1004.9 ± 40.2", "unit": "µmol/L"}, {"measurement": "HDL-C", "setting": "[2]; 30 mg/kg p.o., 7 days, serum", "result": "168.2 ± 8.90", "unit": "mg/dL"}, {"measurement": "LDL-C", "setting": "[2]; 30 mg/kg p.o., 7 days, serum", "result": "179.6 ± 13.2", "unit": "mg/dL"}, {"measurement": "Lipoprotein lipase", "setting": "[2]; 30 mg/kg p.o., 7 days, serum", "result": "36.3 ± 3.90", "unit": "U/L"}, {"measurement": "NEFA", "setting": "[2]; 30 mg/kg p.o., 7 days, serum", "result": "5.70 ± 0.42", "unit": "mmol/L"}, {"measurement": "TG", "setting": "[2]; 30 mg/kg p.o., 7 days, serum", "result": "501.8 ± 45.7", "unit": "mg/dL"}, {"measurement": "effect on body weight, in words", "setting": "[2]; vs control group, FIG. 10", "result": "effectively inhibited the rise in body weight"}, {"measurement": "absorption, in words", "setting": "[3]; oral dosing", "result": "slow absorption"}, {"measurement": "time at which plasma concentrations peaked post-dose", "setting": "[3]; oral dosing", "result": "≥ 10", "unit": "h"}, {"measurement": "AUC(0-t)", "setting": "[3]; plasma, intravenous route", "result": "826 ± 88.7", "unit": "ng·h/mL"}, {"measurement": "C0", "setting": "[3]; plasma, intravenous route", "result": "166 ± 90.2", "unit": "ng/mL"}, {"measurement": "MRT", "setting": "[3]; plasma, intravenous route", "result": "25.3 ± 1.99", "unit": "h"}, {"measurement": "clearance", "setting": "[3]; plasma, intravenous route", "result": 206, "unit": "mL/min/kg"}, {"measurement": "half-life", "setting": "[3]; plasma, intravenous route, read-out: T1/2 (converted)", "result": "15.4 ± 1.25", "unit": "h"}, {"measurement": "Vd", "setting": "[3]; plasma, intravenous route, read-out: Vz", "result": "268 ± 11.3"}, {"measurement": "AUC(0-inf)", "setting": "[3]; plasma, oral route", "result": "1210 ± 166", "unit": "ng·h/mL"}, {"measurement": "CL/F", "setting": "[3]; plasma, oral route", "result": 603, "unit": "mL/min/kg"}, {"measurement": "Cmax", "setting": "[3]; plasma, oral route", "result": "40.4 ± 7.03", "unit": "ng/mL"}, {"measurement": "MRT", "setting": "[3]; plasma, oral route", "result": "23.2 ± 1.31", "unit": "h"}, {"measurement": "bioavailability", "setting": "[3]; plasma, oral route", "result": 33.6, "unit": "%"}, {"measurement": "half-life", "setting": "[3]; plasma, oral route, read-out: T1/2 (converted)", "result": "14.3 ± 0.95", "unit": "h"}, {"measurement": "Vd/F", "setting": "[3]; plasma, oral route, read-out: Vz/F", "result": "739 ± 87.1"}, {"measurement": "half-life", "setting": "[3]; plasma, route not stated, read-out: elimination half-life", "result": "> 14", "unit": "h"}, {"measurement": "clearance, in words", "setting": "[3]", "result": "large clearance"}, {"measurement": "bio-availability, in words", "setting": "[3]; in vivo", "result": "good bio-availability"}]}
